Consider 5 molecules from PMC4207896, “Cytotoxic Benzophenanthridine and Furoquinoline Alkaloids from Zanthoxylum buesgenii (Rutaceae)” (Chemistry Central Journal, 2014).

What all share (type): cell-based
Assay [1] relates to nine tested cancer cell lines. The assay is described as follows: Resazurin reduction cytotoxicity assay, panel of nine cancer cell lines. As to conditions: all nine cancer cell lines, 72 h, read-out: IC50 values towards all the nine tested cancer cell lines. The procedure:
The resazurin reduction assay was performed to assess the cytotoxicity of compounds and doxorubicin as control drug towards various sensitive and drug-resistant cancer cell lines, including the CCRF-CEM and CEM/ADR5000 leukemia, MDA-MB231 breast cancer cells and its resistant subline MDA-MB231/BCRP, HCT116p53^+/+ colon cancer cells and its resistant subline HCT116p53^−/−, U87MG glioblastoma cells and its resistant subline U87MG. ΔEGFR and HepG2 hepatocarcinoma cells and normal AML12 hepatocytes. The assay is based on the reduction of the indicator dye, resazurin, to the highly fluorescent resorufin by viable cells. […] Briefly, adherent cells were detached by treatment with 0.25% trypsin/EDTA (Invitrogen, Darmstadt Germany) and an aliquot of 1 × 10^4 cells was placed in each well of a 96-well cell culture plate (Thermo Scientific, Langenselbold, Germany) in a total volume of 200 μL. Cells were allowed to attach overnight and then were treated with different concentrations of compounds. For suspension cells, aliquots of 2 × 10^4 cells per well were seeded in 96-well-plates in a total volume of 100 μL. […] Fluorescence was measured on an Infinite M2000 ProTM plate reader (Tecan, Crailsheim, Germany) using an excitation wavelength of 544 nm and an emission wavelength of 590 nm. […] The viability was evaluated based on a comparison with untreated cells. […]

Assay [2] has as its system HCT116 (p53+/+) colon cancer cells. The assay is described as follows: Resazurin reduction cytotoxicity assay, HCT116 (p53+/+). As to conditions: Homo sapiens, read-out: IC50 values. As for the experimental part: (§1) The resazurin reduction assay was performed to assess the cytotoxicity of compounds and doxorubicin as control drug towards various sensitive and drug-resistant cancer cell lines, including the CCRF-CEM and CEM/ADR5000 leukemia, MDA-MB231 breast cancer cells and its resistant subline MDA-MB231/BCRP, HCT116p53^+/+ colon cancer cells and its resistant subline HCT116p53^−/−, U87MG glioblastoma cells and its resistant subline U87MG. ΔEGFR and HepG2 hepatocarcinoma cells and normal AML12 hepatocytes. The assay is based on the reduction of the indicator dye, resazurin, to the highly fluorescent resorufin by viable cells. […] Briefly, adherent cells were detached by treatment with 0.25% trypsin/EDTA (Invitrogen, Darmstadt Germany) and an aliquot of 1 × 10^4 cells was placed in each well of a 96-well cell culture plate (Thermo Scientific, Langenselbold, Germany) in a total volume of 200 μL. Cells were allowed to attach overnight and then were treated with different concentrations of compounds. For suspension cells, aliquots of 2 × 10^4 cells per well were seeded in 96-well-plates in a total volume of 100 μL. The studied compounds were immediately added in varying concentrations in an additional 100 μL of culture medium to obtain a total volume of 200 μL/well. After 72 h, resazurin (Sigma-Aldrich, Schnelldorf, Germany) (20 μL, 0.01% w/v) in distilled H2O was added to each well and the plates were incubated at 37°C for 4 h. Fluorescence was measured on an Infinite M2000 ProTM plate reader (Tecan, Crailsheim, Germany) using an excitation wavelength of 544 nm and an emission wavelength of 590 nm. Each assay was done at least twice with six replicates each. The viability was evaluated based on a comparison with untreated cells. IC50 values represent the compound concentrations required to inhibit 50% of cell proliferation and were calculated from a calibration curve by linear regression using Microsoft Excel.

In assay [3] the test system is CEM/ADR5000 leukemia cells. The assay is described as follows: Resazurin reduction cytotoxicity assay, CEM/ADR5000. As to conditions: Homo sapiens, read-out: IC50 values. As for the experimental part: as §1
On the technique in general: Resazurin is reduced to fluorescent resorufin, in cell work by metabolically active cells.

A further assay relates to normal AML12 hepatocytes. The assay is described as follows: Resazurin reduction cytotoxicity assay, normal AML12 hepatocytes. The conditions noted are these: Mus musculus, read-out: IC50 values. The procedure: as §1
A further assay deals with U87MG glioblastoma cells. In words: Resazurin reduction cytotoxicity assay, U87MG. As to conditions: Homo sapiens, U-87 MG, 72 h, read-out: IC50 values. The procedure:
as §1

Assay [4] concerns HepG2 hepatocarcinoma cells. In words: Resazurin reduction cytotoxicity assay, HepG2. As to conditions: Homo sapiens, read-out: IC50 values. The procedure: as §1
The subject of another assay is U87MG. ΔEGFR cells. In words: Resazurin reduction cytotoxicity assay, U87MG.ΔEGFR. As to conditions: Homo sapiens, U-87 MG, 72 h, read-out: IC50 values. The procedure:
as §1

Assay [5] relates to MDA-MB231 breast cancer cells. The assay is described as follows: Resazurin reduction cytotoxicity assay, MDA-MB231. As to conditions: Homo sapiens, read-out: IC50 values. As for the experimental part: as §1
Assay [6] deals with HCT116 (p53-/-) colon cancer cells. In words: Resazurin reduction cytotoxicity assay, HCT116 (p53-/-). As to conditions: Homo sapiens, read-out: IC50 values. As for the experimental part: as §1
The test system of a further assay is CCRF-CEM leukemia cells. In words: Resazurin reduction cytotoxicity assay, CCRF-CEM. As to conditions: Homo sapiens, 72 h, read-out: IC50 values. The procedure:
as §1

The next assay relates to MDA-MB231/BCRP cells. In words: Resazurin reduction cytotoxicity assay, MDA-MB231/BCRP. As to conditions: MDA-MB-231/BCRP, 72 h, read-out: IC50 values. As for the experimental part:
as §1

[7] abbreviates: CEM/ADR5000 leukemia (resistant), resazurin assay, 72 h.
[8] abbreviates: normal AML12 hepatocytes, resazurin assay, 72 h.
[9] abbreviates: U87MG glioblastoma cells, resazurin assay.
Setting [10] is: HepG2 hepatocarcinoma cells, resazurin assay, 72 h.
[11] abbreviates: U87MG. ΔEGFR resistant subline, resazurin assay.
[12] abbreviates: MDA-MB-231, MDA-MB231 breast cancer cells, resazurin assay, 72 h.
Setting [13] is: CCRF-CEM leukemia (sensitive), resazurin assay.
[14] abbreviates: MDA-MB231/BCRP resistant subline, resazurin assay.

Like-named read-outs stand apart in the source and are kept apart here.

On to `COc1c(O)ccc2c1C(O)N(C)c1c-2ccc2cc3c(cc12)OCO3` (stereo not drawn) [Compound 1, 1-methoxy-12-methyl-12,13-dihydro-[1,3]dioxolo[4′,5′:4,5]benzo[1,2-c]phenanthridine-2,13-diol], for which the IC50 (usually the midpoint of a concentration-inhibition curve) in assay [1] was no more than 65 µM; in [2] (HCT-116, HCT116 (p53+/+) colon cancer cells, resazurin assay, 72 h), 42.5 ± 3.22 µM; in [3] (setting [7]), 31.6 ± 3.48 µM; in the assay with normal AML12 hepatocytes (setting [8]), greater than 107 µM; in the assay with U87MG glioblastoma cells (setting [9]) it was 60.6 ± 7.29 µM; in assay [4] (setting [10]) it was 22.4 ± 1.97 µM. For the same molecule, the half-inhibitory concentration (IC50) with U87MG. ΔEGFR cells (setting [11]) came out at 61.8 ± 4.68 µM; in [5] (setting [12]), 30.1 ± 4.12 µM; in assay [6] (HCT-116, HCT116 (p53-/-) resistant subline, resazurin assay, 72 h), 62.3 ± 4.41 µM; with CCRF-CEM leukemia cells (setting [13]) it was 0.24 ± 0.01 µM; with MDA-MB231/BCRP cells (setting [14]) it was 65 ± 5.37 µM.

On to `COc1c(O)ccc2c1c[n+](C)c1c3cc4c(cc3ccc21)OCO4` [Compound 2, isofagaridine], for which the IC50 in assay [2] (HCT-116, 72 h) was 87.1 ± 7.55 µM; in assay [3] (ADR5000, 72 h) it was 20.4 ± 2.16 µM; in the assay with normal AML12 hepatocytes (AML12, 72 h), greater than 120 µM; in the assay with U87MG glioblastoma cells it was 105 ± 9.16 µM; in assay [4] (HepG2, 72 h), 26.7 ± 3.15 µM; in the assay on U87MG. ΔEGFR cells it was 115 ± 13.8 µM. Besides, the IC50 in assay [5] (MDA-MB-231, 72 h) is 41.4 ± 3.44 µM; in assay [6] (HCT-116, 72 h), greater than 120 µM; in the assay with CCRF-CEM leukemia cells (CCRF-CEM), 0.3 ± 0.04 µM; in the assay with MDA-MB231/BCRP cells it was 114 ± 9.82 µM.

As to `COc1c2cc3c(cc2nc2occc12)OCO3` [Compound 3, maculine], the half-inhibitory concentration (IC50) is greater than 165 µM in [2] (HCT-116, 72 h); 63.1 ± 3.75 µM in assay [3] (ADR5000, 72 h); greater than 165 µM in the assay with normal AML12 hepatocytes (AML12, 72 h); greater than 165 µM with U87MG glioblastoma cells; greater than 165 µM in assay [4] (HepG2, 72 h); greater than 165 µM with U87MG. ΔEGFR cells. Moreover, the 50% inhibitory concentration (IC50) was greater than 165 µM in assay [5] (MDA-MB-231, 72 h); greater than 165 µM in [6] (HCT-116, 72 h); 89.1 ± 6.22 µM in the assay with CCRF-CEM leukemia cells (CCRF-CEM); greater than 165 µM with MDA-MB231/BCRP cells.

As to `COc1cc2nc3occc3c(OC)c2cc1OC` [Compound 4, kokusaginine], the IC50 in assay [2] (HCT-116, 72 h) was 120 ± 13.1 µM; in assay [3] (ADR5000, 72 h), 44.6 ± 3.92 µM; in the assay with normal AML12 hepatocytes (AML12, 72 h), greater than 154 µM; in the assay on U87MG glioblastoma cells it was 70.1 ± 6.4 µM; in assay [4] (HepG2, 72 h) it was 90.8 ± 8.86 µM; with U87MG. ΔEGFR cells, greater than 154 µM. In addition, the IC50 in assay [5] (MDA-MB-231, 72 h) is 62 ± 7.24 µM; in assay [6] (HCT-116, 72 h), greater than 154 µM; in the assay on CCRF-CEM leukemia cells (CCRF-CEM), 49.8 ± 5.04 µM; in the assay on MDA-MB231/BCRP cells, greater than 154 µM.

Regarding `COc1cccc2c1C(=O)c1c(O)c3c(c(O)c1C2=O)C[C@@](O)(C(=O)CO)C[C@@H]3O[C@H]1C[C@H](N)[C@H](O)[C@H](C)O1` [Doxorubicin, doxorubicin, reference compound], the 50% inhibitory concentration (IC50) was 1.41 ± 0.29 µM in assay [2] (HCT-116, 72 h); 195 ± 14.3 µM in [3] (setting [7]); greater than 73.6 µM with normal AML12 hepatocytes (setting [8]); 1.06 ± 0.15 µM with U87MG glioblastoma cells (setting [9]); 3.83 ± 0.94 µM in assay [4] (setting [10]); 6.11 ± 0.57 µM with U87MG. ΔEGFR cells (setting [11]). Moreover, the IC50 was 1.1 ± 0.28 µM in assay [5] (setting [12]); 4.06 ± 0.07 µM in assay [6] (HCT-116, 72 h); 0.2 ± 0.06 µM in the assay with CCRF-CEM leukemia cells (setting [13]); 7.83 ± 0.47 µM with MDA-MB231/BCRP cells (setting [14]).
